Source: US20250051337A1 (priority 2021, published 2025)

Tests used:
STK4 = STK4 (Homo sapiens (Human), UniProt Q13043); assay: ADP-Glo kinase assay, STK4; type: biochemical; conditions: ADP-Glo, 50 μM ATP; read-out: STK4 IC50
Description: (§1) The STK3 kinase assay was performed in 5 μL reaction buffer containing 50 ng recombinant human STK3 protein (full length, SignalChem #S24-10G; Richmond, Canada), 250 μg/mL myelin basic protein (Sigma-Aldrich #M1891; St. Louis, MO, USA), and 50 μM ATP (Sigma-Aldrich #A7699). The STK4 kinase assay was performed in 5 μL reaction buffer containing 50 ng recombinant human STK4 protein (full length, SignalChem #S25-10G), 300 μg/mL Axltide (SignalChem #A16-58), and 50 μM ATP. […] Three experiments were performed, each in triplicate.

STK3 = STK3 (Homo sapiens (Human), UniProt Q13188); assay: ADP-Glo kinase assay, STK3; type: biochemical; conditions: ADP-Glo, 50 μM ATP; read-out: STK3 IC50
Sequence of STK3 (Q13188 whole entry): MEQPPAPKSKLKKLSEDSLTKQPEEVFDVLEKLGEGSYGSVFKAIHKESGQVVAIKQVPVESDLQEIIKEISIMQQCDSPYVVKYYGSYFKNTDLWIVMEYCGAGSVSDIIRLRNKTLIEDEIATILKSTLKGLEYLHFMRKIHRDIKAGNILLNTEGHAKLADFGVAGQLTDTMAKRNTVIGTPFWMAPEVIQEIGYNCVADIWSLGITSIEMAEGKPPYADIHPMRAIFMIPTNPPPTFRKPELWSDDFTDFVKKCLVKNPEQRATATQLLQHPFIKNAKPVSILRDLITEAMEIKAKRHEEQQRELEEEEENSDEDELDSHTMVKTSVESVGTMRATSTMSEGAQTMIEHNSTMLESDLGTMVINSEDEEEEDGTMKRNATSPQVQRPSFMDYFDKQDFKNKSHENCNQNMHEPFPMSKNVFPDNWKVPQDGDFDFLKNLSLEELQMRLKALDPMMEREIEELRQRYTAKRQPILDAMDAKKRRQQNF
Description: as §1

Sequence of STK4 (Q13043 whole entry): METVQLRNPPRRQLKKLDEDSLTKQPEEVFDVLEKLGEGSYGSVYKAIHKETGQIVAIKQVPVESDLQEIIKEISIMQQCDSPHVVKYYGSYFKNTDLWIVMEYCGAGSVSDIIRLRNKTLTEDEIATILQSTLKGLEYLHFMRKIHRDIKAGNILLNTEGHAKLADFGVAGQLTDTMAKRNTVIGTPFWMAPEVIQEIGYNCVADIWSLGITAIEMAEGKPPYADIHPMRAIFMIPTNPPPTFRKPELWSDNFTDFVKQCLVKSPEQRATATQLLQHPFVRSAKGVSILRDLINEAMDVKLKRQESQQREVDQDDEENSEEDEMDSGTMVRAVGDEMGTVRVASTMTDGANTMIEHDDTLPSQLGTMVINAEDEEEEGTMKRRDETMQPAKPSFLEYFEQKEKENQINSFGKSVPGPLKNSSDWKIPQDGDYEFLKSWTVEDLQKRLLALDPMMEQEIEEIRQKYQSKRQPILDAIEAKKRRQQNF

| IC50 (STK4) [µM] | IC50 (STK3) [µM] | Structure (SMILES) |
| --- | --- | --- |
| < 1 | < 1 | CCCNc1ncnc2[nH]cc(-c3cccc(Cl)c3)c12 [Compound 50, 5-(3-chlorophenyl)-N-propyl-7H-pyrrolo[2,3-d]pyrimidin-4-amine] |
| < 1 | < 1 | CCN(CC)c1ncnc2[nH]cc(-c3cccc(Cl)c3)c12 [Compound 51, 5-(3-chlorophenyl)-N,N-diethyl-7H-pyrrolo[2,3-d]pyrimidin-4-amine] |
| < 1 | < 1 | CC(C)CNc1ncnc2[nH]cc(-c3cccc(Cl)c3)c12 [Compound 52, 5-(3-chlorophenyl)-N-isobutyl-7H-pyrrolo[2,3-d]pyrimidin-4-amine] |
| < 1 | < 1 | C=CCNc1ncnc2[nH]cc(-c3cccc(Cl)c3)c12 [Compound 53, N-allyl-5-(3-chlorophenyl)-7H-pyrrolo[2,3-d]pyrimidin-4-amine] |
| < 1 | < 1 | OCCNc1ncnc2[nH]cc(-c3cccc(Cl)c3)c12 [Compound 54, 2-((5-(3-chlorophenyl)-7H-pyrrolo[2,3-d]pyrimidin-4-yl)amino)ethan-1-ol] |
| < 1 | 1 to 5 | FC(F)(F)CNc1ncnc2[nH]cc(-c3cccc(Cl)c3)c12 [Compound 55, 5-(3-chlorophenyl)-N-(2,2,2-trifluoroethyl)-7H-pyrrolo[2,3-d]pyrimidin-4-amine] |
| > 5 | > 5 | CN(C)CCNc1ncnc2[nH]cc(-c3cccc(Cl)c3)c12 [Compound 57, N1-(5-(3-chlorophenyl)-7H-pyrrolo[2,3-d]pyrimidin-4-yl)-N2,N2-dimethylethane-1,2-diamine] |
| > 5 | > 5 | COCCNc1ncnc2[nH]cc(-c3cccc(Cl)c3)c12 [Compound 58, 5-(3-chlorophenyl)-N-(2-methoxyethyl)-7H-pyrrolo[2,3-d]pyrimidin-4-amine] |
| < 1 | 1 to 5 | Clc1cccc(-c2c[nH]c3ncnc(NCc4ccn[nH]4)c23)c1 [Compound 59, N-((1H-pyrazol-5-yl)methyl)-5-(3-chlorophenyl)-7H-pyrrolo[2,3-d]pyrimidin-4-amine] |
| < 1 | 1 to 5 | Clc1cccc(-c2c[nH]c3ncnc(NCC4CCOCC4)c23)c1 [Compound 61, 5-(3-chlorophenyl)-N-((tetrahydro-2H-pyran-4-yl)methyl)-7H-pyrrolo[2,3-d]pyrimidin-4-amine] |
| < 1 | < 1 | Clc1cccc(-c2c[nH]c3ncnc(NCc4ccoc4)c23)c1 [Compound 62, 5-(3-chlorophenyl)-N-(furan-3-ylmethyl)-7H-pyrrolo[2,3-d]pyrimidin-4-amine] |
| < 1 | 1 to 5 | Clc1cccc(-c2c[nH]c3ncnc(NCCc4ccccn4)c23)c1 [Compound 63, 5-(3-chlorophenyl)-N-(2-(pyridin-2-yl)ethyl)-7H-pyrrolo[2,3-d]pyrimidin-4-amine] |
| 1 to 5 | 1 to 5 | CC(C)CCNc1ncnc2[nH]cc(-c3cccc(Cl)c3)c12 [Compound 64, 5-(3-chlorophenyl)-N-isopentyl-7H-pyrrolo[2,3-d]pyrimidin-4-amine] |
| 1 to 5 | 1 to 5 | CN1CCC(Nc2ncnc3[nH]cc(-c4cccc(Cl)c4)c23)CC1 [Compound 65, 5-(3-chlorophenyl)-N-(1-methylpiperidin-4-yl)-7H-pyrrolo[2,3-d]pyrimidin-4-amine] |
| 1 to 5 | 1 to 5 | Clc1cccc(-c2c[nH]c3ncnc(NCCN4CCOCC4)c23)c1 [Compound 66, 5-(3-chlorophenyl)-N-(2-morpholinoethyl)-7H-pyrrolo[2,3-d]pyrimidin-4-amine] |
| 1 to 5 | 1 to 5 | COc1ccccc1CNc1ncnc2[nH]cc(-c3cccc(Cl)c3)c12 [Compound 68, 5-(3-chlorophenyl)-N-(2-methoxybenzyl)-7H-pyrrolo[2,3-d]pyrimidin-4-amine] |
| 1 to 5 | > 5 | Clc1cccc(-c2c[nH]c3ncnc(NCc4ccncc4)c23)c1 [Compound 71, 5-(3-chlorophenyl)-N-(pyridin-4-ylmethyl)-7H-pyrrolo[2,3-d]pyrimidin-4-amine] |
| 1 to 5 | > 5 | COc1ccc(CCNc2ncnc3[nH]cc(-c4cccc(Cl)c4)c23)cc1OC [Compound 72, 5-(3-chlorophenyl)-N-(3,4-dimethoxyphenethyl)-7H-pyrrolo[2,3-d]pyrimidin-4-amine] |
| 1 to 5 | > 5 | COc1ccc(CNc2ncnc3[nH]cc(-c4cccc(Cl)c4)c23)c(OC)c1 [Compound 73, 5-(3-chlorophenyl)-N-(2,4-dimethoxybenzyl)-7H-pyrrolo[2,3-d]pyrimidin-4-amine] |

| IC50 (STK4) [µM] | IC50 (STK3) [µM] | Structure (SMILES) |
| --- | --- | --- |
| > 5 | > 5 | COc1cccc(CNc2ncnc3[nH]cc(-c4cccc(Cl)c4)c23)c1 [Compound 74, 5-(3-chlorophenyl)-N-(3-methoxybenzyl)-7H-pyrrolo[2,3-d]pyrimidin-4-amine] |
| > 5 | > 5 | Clc1cccc(-c2c[nH]c3ncnc(NCc4cnco4)c23)c1 [Compound 75, 5-(3-chlorophenyl)-N-(oxazol-5-ylmethyl)-7H-pyrrolo[2,3-d]pyrimidin-4-amine] |
| > 5 | > 5 | Clc1cccc(-c2c[nH]c3ncnc(NCc4cnc[nH]4)c23)c1 [Compound 76, N-((1H-imidazol-5-yl)methyl)-5-(3-chlorophenyl)-7H-pyrrolo[2,3-d]pyrimidin-4-amine] |
| > 5 | > 5 | Clc1cccc(-c2c[nH]c3ncnc(NCc4nccs4)c23)c1 [Compound 79, 5-(3-chlorophenyl)-N-(thiazol-2-ylmethyl)-7H-pyrrolo[2,3-d]pyrimidin-4-amine] |
| > 5 | > 5 | CCN1CCCC1CNc1ncnc2[nH]cc(-c3cccc(Cl)c3)c12 (stereo not shown) [Compound 80, 5-(3-chlorophenyl)-N-((1-ethylpyrrolidin-2-yl)methyl)-7H-pyrrolo[2,3-d]pyrimidin-4-amine] |
| 1 to 5 | > 5 | Clc1cccc(-c2c[nH]c3ncnc(N4CCC(N5CCCCC5)CC4)c23)c1 [Compound 81, 4-([1,4′-bipiperidin]-1′-yl)-5-(3-chlorophenyl)-7H-pyrrolo[2,3-d]pyrimidine] |
| > 5 | > 5 | CCN(CC)CCNc1ncnc2[nH]cc(-c3cccc(Cl)c3)c12 [Compound 82, N1-(5-(3-chlorophenyl)-7H-pyrrolo[2,3-d]pyrimidin-4-yl)-N2,N2-diethylethane-1,2-diamine] |
| > 5 | > 5 | Clc1cccc(-c2c[nH]c3ncnc(NCCN4CCCC4)c23)c1 [Compound 83, 5-(3-chlorophenyl)-N-(2-(pyrrolidin-1-yl)ethyl)-7H-pyrrolo[2,3-d]pyrimidin-4-amine] |
| > 5 | > 5 | Clc1cccc(-c2c[nH]c3ncnc(NCC4CCCCCC4)c23)c1 [Compound 84, 5-(3-chlorophenyl)-N-(cycloheptylmethyl)-7H-pyrrolo[2,3-d]pyrimidin-4-amine] |
| > 5 | > 5 | Cc1ccc(CNc2ncnc3[nH]cc(-c4cccc(Cl)c4)c23)cc1C [Compound 85, 5-(3-chlorophenyl)-N-(3,4-dimethylbenzyl)-7H-pyrrolo[2,3-d]pyrimidin-4-amine] |
| > 5 | > 5 | Clc1cccc(-c2c[nH]c3ncnc(N4CCC(c5ccccc5)CC4)c23)c1 [Compound 87, 5-(3-chlorophenyl)-4-(4-phenylpiperidin-1-yl)-7H-pyrrolo[2,3-d]pyrimidine] |
| > 5 | > 5 | Clc1cccc(-c2c[nH]c3ncnc(NCCC(c4ccccc4)c4ccccc4)c23)c1 [Compound 88, 5-(3-chlorophenyl)-N-(3,3-diphenylpropyl)-7H-pyrrolo[2,3-d]pyrimidin-4-amine] |
| > 5 | > 5 | Clc1cccc(-c2c[nH]c3ncnc(N4CCN(c5ccccc5)CC4)c23)c1 [Compound 89, 5-(3-chlorophenyl)-4-(4-phenylpiperazin-1-yl)-7H-pyrrolo[2,3-d]pyrimidine] |
| > 5 | > 5 | Clc1cccc(-c2c[nH]c3ncnc(N4CCC(Cc5ccccc5)CC4)c23)c1 [Compound 90, 4-(4-benzylpiperidin-1-yl)-5-(3-chlorophenyl)-7H-pyrrolo[2,3-d]pyrimidine] |
| > 5 | > 5 | Cc1cccc(CNc2ncnc3[nH]cc(-c4cccc(Cl)c4)c23)c1 [Compound 91, 5-(3-chlorophenyl)-N-(3-methylbenzyl)-7H-pyrrolo[2,3-d]pyrimidin-4-amine] |
| > 5 | > 5 | Clc1cccc(-c2coc3nccc(N4CCOCC4)c23)c1 [Compound 94, 3-(3-chlorophenyl)-4-morpholinofuro[2,3-b]pyridine] |
| > 5 | > 5 | Cn1cc(-c2cccc(Cl)c2)c2c(N3CCOCC3)ncnc21 [Compound 95, 4-(5-(3-chlorophenyl)-7-methyl-7H-pyrrolo[2,3-d]pyrimidin-4-yl)morpholine] |
| < 1 | 1 to 5 | NS(=O)(=O)c1ccc(Nc2nc(N3CCOCC3)c3c(-c4cccc(Cl)c4)c[nH]c3n2)cc1 [Compound 96, 4-((5-(3-chlorophenyl)-4-morpholino-7H-pyrrolo[2,3-d]pyrimidin-2-yl)amino)benzenesulfonamide] |

| Structure (SMILES) | IC50 (STK4) [µM] | IC50 (STK3) [µM] |
| --- | --- | --- |
| Clc1cccc(-c2c[nH]c3ncnc(NCc4ccc(Cl)nc4)c23)c1 [Compound 86, 5-(3-chlorophenyl)-N-((6-chloropyridin-3-yl)methyl)-7H-pyrrolo[2,3-d]pyrimidin-4-amine] | > 5 | > 5 |
